Article PMC7274078, “Brain Endothelial Cells Regulate Glucagon-Like Peptide 1 Entry Into the Brain via a Receptor-Mediated Process” (Frontiers in Physiology, 2020)

How the values were obtained:
[1] = system: Rat brain microvascular endothelial cells (RBMECs); experiment: Endothelial cell uptake of GLP-1-FAM; assay type: cell-based
Protocol: Rat brain microvascular endothelial cells (RBMECs; Cell Applications, San Diego, CA, United States) were cultured on a cover slip in rat brain endothelial cell growth medium. After reaching confluency, cells were pre-treated with vehicle (PSS buffer), exendin 9-39 (10 nM) or H89 (Sigma-Aldrich, St. Louis, MO, United States) (10 μM) for 30 min or forskolin (Sigma-Aldrich, St. Louis, MO, United States) (10 μM) for 5 min. Cells were then incubated with GLP-1-FAM at either 10, 100 or 1,000 pM for 3 min at 37°C. DAPI was used to stain the nucleus. After fixation and washing three times with cold TBST (5 min each time), cell images were captured using confocal microscope and fluorescence intensity measured using ImageJ software^1. FAM signal from surface binding of FAM was examined by incubating cells with GLP-1-FAM at 4 or 37°C for 3 min, or free FAM (10, 100, and 1,000 pM) at 37°C for 3 min.
FIGURE 5 GLP-1 uptake by RBMECs is GLP-1 receptor and PKA dependent. RBMECs were pretreated with vehicle (PSS buffer, A,E,I), Exendin 9-39 (10 nM, B,F,J) or H89 (10 μM, C,G,K) for 30 min. Cells were then incubated with GLP-1-FAM at 10, 100 pM or 1 nM for 3 min. DAPI was used to stain the nucleus. Images were captured using confocal microscope. Fluorescence density was analyzed using ImageJ. (D,H,L) Quantitative analysis (n = 3, *p < 0.01, vs. vehicle, Student’s t test). GLP-1R – GLP-1 receptor.
FIGURE 6 cAMP agonist increases GLP-1 uptake by RBMECs. (A) RBMECs were incubated with GLP-1-FAM at 10 pM for 3 min with or without 10 μM forskolin. DAPI was used to stain the nucleus. Images was captured using confocal microscope. Fluorescence density was analyzed using ImageJ. (B) quantitative analysis of the images (n = 6, *p < 0.05, vs. vehicle, Student’s t test).

GLP-1 receptor = biological target: T1, GLP-1 receptor (Rattus norvegicus, UniProt P32301); experiment: Effect of GLP-1 receptor antagonist infusion on brain uptake of labeled GLP-1 or exendin-4; assay type: in vivo; conditions: exendin-(9-39) 30 nmol/kg/min for 20 min
T1 construct: from tissue; host or cells: live rat; brain regions (cerebellum, cortex, hippocampus, hypothalamus, brain stem) and brain microvasculature
T1 sequence (P32301 22-463): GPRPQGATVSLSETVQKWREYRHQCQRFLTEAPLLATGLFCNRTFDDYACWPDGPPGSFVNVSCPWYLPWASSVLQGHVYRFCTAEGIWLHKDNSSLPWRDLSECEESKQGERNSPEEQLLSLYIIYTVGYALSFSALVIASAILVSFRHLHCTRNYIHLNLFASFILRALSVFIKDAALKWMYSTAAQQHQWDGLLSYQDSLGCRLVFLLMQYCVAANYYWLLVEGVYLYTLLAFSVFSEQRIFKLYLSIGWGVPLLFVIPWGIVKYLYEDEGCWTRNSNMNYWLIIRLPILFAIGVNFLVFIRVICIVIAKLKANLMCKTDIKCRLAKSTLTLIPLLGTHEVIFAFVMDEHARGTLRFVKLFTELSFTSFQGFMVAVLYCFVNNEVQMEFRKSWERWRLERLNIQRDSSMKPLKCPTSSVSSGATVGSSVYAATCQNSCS
Protocol: Rats received a systemic infusion of either saline or exendin-(9-39) (GLP-1 receptor antagonist, 30 nmol/kg/min, Abcam, Cambridge, United Kingdom) via the jugular vein catheter for 20 min (Figure 1A). In the last 10 min, rats also received 30 pmol/kg/min of either GLP-1-FAM (AnaSpec, Fremont, CA, United States) or exendin-4-FAM (AnaSpec, Fremont, CA, United States) together with Dextran-TRITC (Sigma-Aldrich, St. Louis, MO, United States) (70 kD, vascular space marker, 30 pmol/kg/min). […] After collecting plasma samples, rats were sacrificed via anesthetic overdose and various brain regions (cerebellum, cortex, hippocampus, hypothalamus, and brain stem) collected, homogenized and lysed in lysis buffer. Fluorescence from TRITC and FAM were measured in both plasma and brain lysates. Protein concentrations were determined in the brain lysates. Brain uptake of GLP-1-FAM and exendin-4-FAM were calculated using the following formula:
Tissue fluorescence [FAM]/Tissue weight (μg)−TissueFluorescence [TRITC]/Weight(μg)/PlasmaFluorescence [TRITC]/200(μL)×Plasma Fluorescence [FAM]/200μL
FIGURE 1 GLP-1 and GLP-1 analog exendin-4 enter various brain regions via GLP-1 receptor-mediated process. (A) Protocol. […]

[2] = system: RBMEC and astrocyte barrier; experiment: Trans-endothelial GLP-1 transport (Transwell artificial BBB); assay type: in vitro ADME, rat; conditions: exendin-(9-39) 100 nM, 10 min pre-treatment and during transport; GLP-1-FAM 100 pM; n = 7, p < 0.01
Protocol: The trans-endothelial GLP-1 transport was examined using a Transwell system that mimics the BBB in that RBMECs were co-cultured with astrocytes as illustrated in Figure 7A and previously described ([Gaillard et al., 2001]). Briefly, astrocytes (Thermo Fisher Scientific, Waltham, MA, United States) were seeded on the bottom and RBMECs were then seeded onto the top of the Transwell insert (6.5 mm diameter, 1 μm pore size, polyester membrane; Corning, Corning, NY, United States). Trans-endothelial electrical resistance was monitored using a volt-ohmmeter (EVOM; WPI, Sarasota, FL, United States) and EndOhm chamber (EndOhm; WPI). When the trans-endothelial electrical resistance reached its peak, the insert with double cell layers was washed twice at 37°C with PBS buffer. […] The amount of GLP-1-FAM or inulin-FITC transported to the lower chamber was determined by measuring FAM and FITC fluorescence in the lower chamber at 5, 10, and 30 min. Inulin-FITC transport was used to correct for paracellular transport and the amount of trans-endothelial transport of GLP-1-FAM was calculated using the formula:
Transcellular transport (%)=Fluorescence [FAM]/Reference [FAM]×100−Fluorescence [FITC]/Reference [FITC]×100
Reference refers to fluorescence in the lower chamber at the specified time point when the Transwell inserts had no cells seeded. To determine if this trans-endothelial transport is dose-dependent, 10, 100, and 1,000 pM GLP-1-FAM or inulin-FITC (with DDP-4 inhibitor) was loaded into the upper chamber, the amount of GLP-1-FAM or inulin-FITC in the lower chamber was determined at 10 min, and trans-endothelial transport of GLP-1 was calculated.
FIGURE 7 Trans-endothelial transport of GLP-1 is a GLP-1 receptor-mediated process. […] GLP-1-FAM or inulin-FITC transport to the lower chamber was determined by measuring FAM and FITC fluorescence in the lower chamber. […]

[3] = pre-treatment 30 min with exendin 9-39 10 nM or H89 10 μM, GLP-1-FAM 10, 100 or 1,000 pM for 3 min at 37°C, n = 3, p < 0.01 vs vehicle

Compound | effect on RBMEC uptake of GLP-1-FAM [1, 3] | effect on RBMEC uptake of GLP-1-FAM ([1]; forskolin 10 μM, 5 min, GLP-1-FAM 10 pM for 3 min, n = 6, p < 0.05 vs vehicle) | effect on amount of GLP-1-FAM fluorescence in various brain regions (GLP-1 receptor; GLP-1-FAM 30 pmol/kg/min in last 10 min, n = 7, p < 0.05) | effect on exendin-4-FAM fluorescence in various brain regions (GLP-1 receptor; exendin-4-FAM 30 pmol/kg/min in last 10 min, n = 6, p < 0.05) | effect on trans-endothelial transport of labeled GLP-1 [2]
O=S(=O)(NCCNC/C=C/c1ccc(Br)cc1)c1cccc2cnccc12 [H89] | blunted | – | – | – | –
C=C[C@@]1(C)CC(=O)[C@]2(O)[C@@]3(C)[C@@H](O)CCC(C)(C)[C@@H]3[C@H](O)[C@H](OC(C)=O)[C@@]2(C)O1 [forskolin] | – | significantly enhanced | – | – | –
exendin-(9-39) | blunted | – | markedly decreased | almost completely abolished | inhibited
